These results are taken from PubChem BioAssay (NCI).

Test systems include ACHN renal; HCT-116 colon; HOP-62 NSCLC; HOP-92 NSCLC; HT29 colon; IGROV1 ovarian; KM12 colon; MDA-MB-231 breast; MDA-N; SK-MEL-5 melanoma; SNB-75 CNS; TK-10 renal; UACC-62 melanoma; HL-60(TB) leukemia; NCI-H226 lung.
Common to all, as to experiment: inhibition of tumour cell growth, NCI panel, 48 h

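The compound was tested at five concentrations on cells cultured in 96-well plates, with a 48-hour exposure period. Definition used: TGI = concentration required for complete inhibition of growth.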

For `COCN1C(=O)[C@@H]2CCCN2C(=O)c2cc(Cl)ccc21`, the TGI in the test on ACHN renal, in the test on HCT-116 colon, with HOP-62 NSCLC, with HOP-92 NSCLC, in the test on HT29 colon and in the test on IGROV1 ovarian was above 100 µM throughout. For the same compound, the TGI in the test on KM12 colon, with MDA-MB-231 breast, with MDA-N, in the test with SK-MEL-5 melanoma, in the test on SNB-75 CNS and in the test with TK-10 renal was above 100 µM each time. This compound gave a TGI in the test on UACC-62 melanoma above 100 µM.
`COc1ccc(N2C(=O)C3c4[nH]c5cc(Cl)ccc5c4C4CCC(C(C)(C)C)CC4C3C2=O)cc1` (stereo not given): the TGI in the test on ACHN renal was above 100 µM; in the test with HCT-116 colon it was above 100 µM; with HL-60(TB) leukemia, 69.4 µM; in the test on HOP-62 NSCLC it was above 100 µM; in the test on HT29 colon it was above 100 µM; in the test on IGROV1 ovarian, above 100 µM. In addition, the TGI with KM12 colon, in the test with MDA-MB-231 breast, in the test with MDA-N, in the test with NCI-H226 lung, in the test on SK-MEL-5 melanoma and in the test with SNB-75 CNS was above 100 µM each time. Also, the TGI with TK-10 renal and in the test on UACC-62 melanoma was above 100 µM each time.
In the case of `CC1C(=O)CC[C@@]2(C)C(=O)CCCC12O` (stereo not given in full), the TGI with ACHN renal, in the test on HCT-116 colon, with HL-60(TB) leukemia, in the test with HOP-62 NSCLC, in the test with HOP-92 NSCLC and in the test on HT29 colon was above 100 µM each time. The TGI in the test with IGROV1 ovarian, in the test with KM12 colon, in the test on MDA-MB-231 breast, in the test on MDA-N, with NCI-H226 lung and in the test with SK-MEL-5 melanoma was above 100 µM each time. The TGI in the test on TK-10 renal and with UACC-62 melanoma was above 100 µM throughout.
Turning to `COc1cc(S(=O)(=O)Nc2ccc(-c3csc(/N=C\C=C\c4ccccc4)n3)cc2)ccc1Cl`, the TGI with ACHN renal is above 100 µM; in the test with HCT-116 colon, above 100 µM; with HL-60(TB) leukemia it was above 100 µM; in the test on HOP-62 NSCLC it was above 100 µM; with HOP-92 NSCLC, 75.9 µM; in the test on HT29 colon it was above 100 µM. Besides, the TGI is above 100 µM in the test with IGROV1 ovarian; above 100 µM in the test with KM12 colon; above 100 µM in the test on MDA-N; 57.7 µM in the test on NCI-H226 lung; above 100 µM in the test on SK-MEL-5 melanoma; above 100 µM in the test on SNB-75 CNS. For the same compound, the TGI in the test with TK-10 renal and in the test with UACC-62 melanoma was above 100 µM in each case.
Consider `Cc1cc(S(=O)(=O)Nc2nc(N)nc(N(C)C)n2)c(SC(C(=O)O)c2ccccc2)cc1Cl` (stereo not given), for which the TGI in the test on ACHN renal, in the test with HCT-116 colon, in the test on HL-60(TB) leukemia, in the test on HOP-62 NSCLC, with HOP-92 NSCLC and with HT29 colon was above 10 µM each time. The TGI in the test with IGROV1 ovarian, in the test with KM12 colon, in the test with MDA-N, in the test on NCI-H226 lung, in the test on SK-MEL-5 melanoma and in the test with SNB-75 CNS was above 10 µM each time. The compound further yielded a TGI in the test with TK-10 renal above 10 µM.
For the compound `O=C1C=C(NCCc2cc(Cl)c(O)c(Cl)c2)C(=O)c2[nH]cnc21`, the TGI is above 100 µM in the test with ACHN renal; above 100 µM with HCT-116 colon; 32.9 µM with HL-60(TB) leukemia; above 100 µM in the test with HOP-62 NSCLC; above 100 µM with HT29 colon; 38.8 µM in the test on IGROV1 ovarian. The TGI with KM12 colon is above 100 µM; in the test on MDA-MB-231 breast, above 100 µM; in the test with MDA-N it was 33.8 µM; in the test on SK-MEL-5 melanoma, 31.5 µM; in the test on TK-10 renal it was above 100 µM; with UACC-62 melanoma, 41.1 µM.
In the case of `O=C1CCCCCCCCCCC1CN(Cc1ccccc1)Cc1ccccc1` (stereo not given), the TGI in the test on ACHN renal is above 100 µM; in the test with HCT-116 colon it was 55.9 µM; in the test with HL-60(TB) leukemia, 76.4 µM; in the test with HOP-62 NSCLC, above 100 µM; in the test on HOP-92 NSCLC it was above 100 µM; in the test with IGROV1 ovarian it was above 100 µM. In addition, the TGI with KM12 colon was above 100 µM; with MDA-MB-231 breast, above 100 µM; in the test on MDA-N, above 100 µM; with NCI-H226 lung it was above 100 µM; in the test with SK-MEL-5 melanoma, 32.4 µM; with TK-10 renal, above 100 µM. In the test with UACC-62 melanoma, this compound showed a TGI of 36.1 µM.
Turning to `O=C1Cc2c(-c3ccccc3)cc(-c3ccc4ccccc4c3)nc2-c2ccccc2N1`, the TGI was above 100 µM in the test with ACHN renal; above 100 µM in the test on HCT-116 colon; above 100 µM with HOP-62 NSCLC; above 100 µM in the test with HOP-92 NSCLC; 15.9 µM in the test with HT29 colon; 11.9 µM in the test on IGROV1 ovarian. The TGI with KM12 colon was 28.3 µM; in the test with MDA-MB-231 breast it was 69.6 µM; in the test on MDA-N, above 100 µM; with NCI-H226 lung it was above 100 µM; in the test on SK-MEL-5 melanoma it was above 100 µM; with SNB-75 CNS, 5.38 µM. Besides, the results for the TGI in the test with TK-10 renal and in the test on UACC-62 melanoma were 29.4 µM and above 100 µM, respectively.
Regarding `Cc1ccc(S(=O)(=O)c2ccsc2NC(=O)c2ccccc2)cc1`, the TGI in the test on ACHN renal was above 79.7 µM; in the test on HCT-116 colon, above 100 µM; with HOP-62 NSCLC, 45 µM; with HOP-92 NSCLC, above 100 µM; in the test on HT29 colon, above 100 µM; in the test with IGROV1 ovarian, above 100 µM. Also, the TGI was above 100 µM in the test on KM12 colon; above 79.4 µM with MDA-MB-231 breast; above 100 µM in the test with MDA-N; above 100 µM with NCI-H226 lung; above 100 µM in the test on SK-MEL-5 melanoma; above 93.3 µM in the test on SNB-75 CNS. Also, the TGI with TK-10 renal and in the test with UACC-62 melanoma was above 100 µM in each case.
On to `C=CCOCn1ccc(NC(=O)c2ccccc2)nc1=O`, for which the TGI with ACHN renal, with HCT-116 colon, in the test on HL-60(TB) leukemia, with HOP-62 NSCLC, in the test on HT29 colon and with IGROV1 ovarian was above 100 µM throughout. Besides, the TGI with KM12 colon, in the test with MDA-MB-231 breast, in the test with MDA-N, with NCI-H226 lung, in the test with SK-MEL-5 melanoma and in the test on SNB-75 CNS was above 100 µM in each case. Besides, the TGI with TK-10 renal and with UACC-62 melanoma was above 100 µM in each case.
